Read-outs that look alike come from different tables or passages of the source. Blank lines part the entries; values can stand above or below the compound they belong to.
What was measured:
MP41 cells [1] = assay: Cell viability (XTT) on uveal melanoma cells MP41; format: cell-based; details: for IC50: MP41 cells (primary tumor); for metabolism of UM cells (XTT): MP41 cells, increasing doses, FIG. 2A; for viability of cells: MP41 cells from the primary tumor, in words
Protocol: (§1) FIG. 1: In vitro efficacy of MCK140 and MCK151 on uveal melanoma cells. Cells were treated for 48 hours with increasing doses of MCK140 or MCK151 and the cell viability was then evaluated by XTT.
(§2) FIG. 2A: In vitro efficacy of MCK151, Ladarixin, and AZD-5069 in uveal melanoma cells. MP41 and MM66 cells were treated for 48 hours with increasing doses of MCK151 or Ladarixin or AZD-5069 and the cell metabolism was then evaluated by XTT.
(§3) Cell culture: Uveal melanoma cells were derived from the primary tumor (eye tumor, MP38 and MP46) and one is from liver metastasis (MM66) were a kind gift from Dr. Roman Roman (Curie Institute). UM cells were cultured in RPMI medium supplemented with 20% FBS.
(§4) Cell viability (XTT): Cells (5×10^3 cells/100 μl) were incubated in a 96-well plate with different effectors for the times indicated in the figure legends. 50 μl of sodium 3′-[1-phenylaminocarbonyl)-3,4-tetrazolium]-bis(4-methoxy-6-nitro) benzene sulfonic acid hydrate (XTT) reagent was added to each well. The assay is based on the cleavage of the yellow tetrazolium salt XTT to form an orange formazan dye by metabolically active cells. Absorbance of the formazan product, reflecting cell viability, was measured at 490 nm. Each assay was performed in quadruplicate.

MM66 cells [2] = assay: Cell viability (XTT) on uveal melanoma cells MM66; format: cell-based; details: for metabolism of UM cells (XTT): MM66 cells, increasing doses, FIG. 2A; for viability of cells: MM66 cells from liver metastases, in words
Protocol: as §1, §2, §3, §4

MP41 cells [3] = assay: ROS assay (CellROX Deep Red, cytometry); format: cell-based; details: MCK151 1, 2.5, 5 μM, Ladarixin 10 μM, FIG. 2B
Protocol: FIG. 2B: Inhibition of ROS production by MCK151 and Ladarixin in uveal melanoma cells. MP41 cells were treated for 48 hours with increasing doses of MCK151 (1 μM, 2.5 μM, and 5 μM) or Ladarixin (10 μM) and ROS quantity was evaluated by cytometry.
ROS assay: Deep Red Reagent was used to assess the level of intracellular ROS. The CellROX/Deep Red reagent (which is initially non-fluorescent) freely enters the cells, where it is cleaved by endogenous esterases. After oxidization by ROS, the reagent becomes highly fluorescent with an absorption/emission maximal of 644/665 nm. Cells were treated 24h and incubated at 37° C. with CellROX Deep Red reagent (0.01 umol/L) for 2 h. The cells were then washed with PBS and analyzed by cytometry.

MP38 cells = assay: Cell viability (XTT) on uveal melanoma cells MP38; format: cell-based; details: for IC50: MP38 cells (primary tumor), 48 hours, XTT; for viability of cells: MP38 cells from the primary tumor, in words
Protocol: as §1, §3, §4

SLUG = SLUG protein amount by immunoblotting; format: cell-based; details: MP41 and MM66 cells, 2.5 μM, 0-24 h, FIG. 3C
Protocol: FIG. 3C: Slug proteins amount in uveal melanoma cells treated by MCK151. MP41 and MM66 cells were treated with MCK151 (2.5 μM) for different time (0, 2, 4, 6, 8, and 24 h). SLUG protein amounts were evaluated by immunoblotting. HSP90 is used as a loading control.
Immunoblotting: Cells were lysed in SDS 7.5%; glycerol 30%; Tris 0.3 M pH 6.8 lysis buffer. 30 μg of proteins were separated on 10% SDS—polyacrylamide gels and transferred on PVDF membranes. The following primary antibodies were used: SLUG (Cell signaling, ref:9585) and HSP90 (Cell signaling, ref:4877).

MP41 cells [4] = assay: Tumor xenograft, intraperitoneal injection; format: in vivo, mice
Protocol: FIG. 4: In vivo efficacy of MCK151 on mice treated by intraperitoneal injection. Five million MP41 cells were injected subcutaneously into the flank of 5-week-old NOD-SCID female mice. When the tumor reached 100 mm^3, mice were treated every day for 20 days, by intraperitoneal injection with placebo (dextrose water vehicle) or MCK151 (200 or 400 μg in dextrose water vehicle) • A: The tumor volume was evaluated using a calliper. The results are presented as the means±sd. ** p<0.01 • B: Tumor weight at the end of the experiment. ** p<0.01, *** p<0.001 • C: Animal weight at the end of the experiment. ns: non significant
(§5) Tumor xenograft experiments: These studies were carried out in strict accordance with the recommendations in the Guide for the Care and Use of Laboratory Animals. Our experiments were approved by the “Comité National Institutionnel d'Ethique pour l'Animal de Laboratoire”. Five million MP41 cells were injected subcutaneously into the flank of 5-week-old Nod-SDIC female mice (Janvier). When the tumor reached 100 mm3, mice were treated. The tumor volume was determined with a caliper (v=L*l2*0.5).

MM66 cells [5] = assay: Migration assay (Boyden chamber); format: cell-based
Protocol: FIG. 3A: Evaluation of the migration ability of uveal cells treated with MCK151. MP41 and MM66 cells migration was analysed using Boyden chamber assays in the presence/absence of MCK151 (0.1 to 2.5 μM). Representative images were shown. ** p<0.01, *** p<0.001
Migration assays: 50 000 cells were cultured in RPMI 0% FCS and seeded in Boyden chambers. After 24 h, Boyden chambers were washed with PBS. Migrative cells were fixed with paraformaldehyde 3% and colored with crystal violet.

MMP9 mRNA = MMP9 mRNA levels by RT-qPCR; format: cell-based; details: MP41 and MM66 cells, 24 hours, 2.5 μM, FIG. 3B
Protocol: FIG. 3B: MMP9 mRNA levels (AU) in uveal melanoma cells. MP41 and MM66 cells were treated for 24 hours with MCK151 (2.5 μM) and MMP9 mRNA levels were evaluated by qPCR. *** p<0.001.
Analyses by RT-qPCR: RNA from cells were purified with the RNeasy Mini Kit (Quiagen). The “QuantiTect Reverse Transcription Kit” (Qiagen) was used for cDNA obtention. The PCR program was executed on “Professional Basic Thermocycler” (Biometra). SYBR master mix plus (Eurogentec) was used for qPCR. The mRNA levels were normalized to 36B4 mRNA.

MP41 cells [6] = assay: Tumor xenograft, gavage; format: in vivo, mice; details: orally
Protocol: FIG. 5: In vivo efficacy of MCK151 on mice treated by gavage. Five million MP41 cells were injected subcutaneously into the flank of 5-week-old NOD-SCID female mice. When the tumor reached 100 mm^3, mice were treated every day for 27 days, by gavage with placebo (10% ethanol vehicle) or MCK151 (33 or 100 mg/kg in 10% ethanol vehicle). • A: The tumor volume was evaluated using a calliper. The results are presented as the means±sd. ** p<0.01, *** p<0.001 • B: Tumor weight at the end of the experiment. ** p<0.01, *** p<0.001 ns: non significant • C: Animal weight at the end of the experiment. ns: non significant
as §5
An oral formulation (10% ethanol in ultrapure water) was developed and tested in the same in vivo model (FIG. 5). […] However, a 100 mg/kg dose reduced tumor growth (50% reduction, FIG. 5A).

[7] = 48 h, Table 3, read-out: IC50 (μM) at 48 h MP41
[8] = MM66 cells (liver metastases), 48 h, Table 3, read-out: IC50 (μM) at 48 h MM66
[9] = 48 hours, XTT, Table 2, read-out: IC50 (μM) UM MP41
[10] = MM66 cells (liver metastasis), 48 hours, XTT, Table 2, read-out: IC50 (μM) UM MM66

IC50 (MP41 cells [1]; [7]): 32 µM
IC50 (MM66 cells [2]; [8]): 40 µM
Structure (SMILES): O=C(Nc1ccccc1)Nc1nc2ccccc2[nH]1 [MCK113, 1-(1H-benzo[d]imidazol-2-yl)-3-phenylurea]

IC50 (MP41 cells [1]; [7]): 20 µM
IC50 (MM66 cells [2]; [8]): 15 µM
Structure (SMILES): O=C(Nc1nc2ccc([N+](=O)[O-])cc2s1)Nc1ccccc1Cl [MCK139, 1-(2-chlorophenyl)-3-(6-nitrobenzo[d]thiazol-2-yl)urea]

IC50 (MP41 cells [1]; [7]): 50 µM
IC50 (MM66 cells [2]; [8]): 50 µM
Structure (SMILES): Nc1ccc2nc(NC(=O)Nc3cccc(Cl)c3)sc2c1 [MCK148, 1-(6-aminobenzo[d]thiazol-2-yl)-3-(3-chlorophenyl)urea]

IC50 (MP41 cells [1]; [7]): 30 µM
IC50 (MM66 cells [2]; [8]): 12 µM
Structure (SMILES): Cc1cccc(NC(=O)Nc2nc3ccc([N+](=O)[O-])cc3o2)c1 [MCK153, 1-(6-nitrobenzo[d]oxazol-2-yl)-3-(m-tolyl)urea]

IC50 (MP41 cells [1]; [7]): 40 µM
IC50 (MM66 cells [2]; [8]): 25 µM
Structure (SMILES): CC(=O)Nc1ccc2nc(NC(=O)Nc3cccc(Cl)c3)sc2c1 [MCK149, N-(2-(3-(3-chlorophenyl)ureido)benzo[d]thiazol-6-yl)acetamide]

IC50 (MP41 cells [1]; [7]): 20 µM
IC50 (MM66 cells [2]; [8]): 10 µM
Structure (SMILES): O=C(Nc1cccc(Cl)c1)Nc1nc2ccc(Br)cc2s1 [MCK159, 1-(6-bromobenzo[d]thiazol-2-yl)-3-(3-chlorophenyl)urea]

IC50 (MP41 cells [1]; [7]): 30 µM
IC50 (MM66 cells [2]; [8]): 25 µM
Structure (SMILES): O=C(Nc1cccc(Cl)c1)Nc1nc2ccc(-c3ccccn3)cc2s1 [MCK172, 1-(3-chlorophenyl)-3-(6-(pyridin-2-yl)benzo[d]thiazol-2-yl)urea]

Structure (SMILES): C[C@@H](C(=O)NS(C)(=O)=O)c1ccc(OS(=O)(=O)C(F)(F)F)cc1 [Ladarixin, reference compound]
ROS production by UM cells (MP41 cells [3]): no effect
metabolism of UM cells (XTT) (MP41 cells [1]; 48 hours): no effect
metabolism of UM cells (XTT) (MM66 cells [2]; 48 hours): no effect

IC50 (MP41 cells [1]; [7]): 1 µM
IC50 (MP41 cells [1]; [9]): 1 µM
IC50 (MM66 cells [2]; [8]): 1.25 µM
IC50 (MM66 cells [2]; [10]): 1.25 µM
IC50 (MP38 cells): 1 µM
Structure (SMILES): O=C(Nc1cccc(Cl)c1)Nc1nc2ccc([N+](=O)[O-])cc2s1 [MCK140, 1-(3-chlorophenyl)-3-(6-nitrobenzo[d]thiazol-2-yl)urea]
viability of cells (MP41 cells [1]): decreased the viability
viability of cells (MM66 cells [2]): decreased the viability
viability of cells (MP38 cells): decreased the viability

Structure (SMILES): C[C@@H](Oc1cc(NS(=O)(=O)N2CCC2)nc(SCc2cccc(F)c2F)n1)[C@@H](O)CO [AZD-5069, reference compound]
metabolism of UM cells (XTT) (MP41 cells [1]; 48 hours): no effect
metabolism of UM cells (XTT) (MM66 cells [2]; 48 hours): no effect

weight of mice (MP41 cells [4]; whatever the concentration, FIG. 4C): did not modify the weight of mice
IC50 (MP41 cells [1]; [7]): 1.25 µM
IC50 (MP41 cells [1]; [9]): 1.25 µM
IC50 (MM66 cells [2]; [8]): 1.5 µM
IC50 (MM66 cells [2]; [10]): 1.5 µM
IC50 (MP38 cells): 1 µM
mice weight (MP41 cells [6]; 33 and 100 mg/kg/day, FIG. 5C): did not modify mice weight
Structure (SMILES): O=C(Nc1cc(Cl)cc(Cl)c1)Nc1nc2ccc([N+](=O)[O-])cc2s1 [MCK151, 1-(3,5-dichlorophenyl)-3-(6-nitrobenzo[d]thiazol-2-yl)urea]
expression of SLUG (SLUG): decreases
ROS production by UM cells (MP41 cells [3]): inhibits ROS production
inhibition of tumor growth (MP41 cells [4]; NOD-SCID mice, 400 μg dose, FIG. 4A): 73%
growth of experimental tumors (MP41 cells [4]; NOD-SCID mice, 200 or 400 μg every day for 20 days, FIG. 4A): inhibited
tumors at the end of the experiment (MP41 cells [4]; NOD-SCID mice, FIG. 4B (tumor weight)): smaller
concentration of optimal effect on migration (MM66 cells [5]; Boyden chamber): 0.5 µM
migration ability (MM66 cells [5]; MCK151 0.1 to 2.5 μM, FIG. 3A): inhibits this migration ability
viability of cells (MP41 cells [1]): decreased the viability
metabolism of UM cells (XTT) (MP41 cells [1]; 48 hours): strongly inhibits the metabolism of UM cells
viability of cells (MM66 cells [2]): decreased the viability
metabolism of UM cells (XTT) (MM66 cells [2]; 48 hours): strongly inhibits the metabolism of UM cells
viability of cells (MP38 cells): decreased the viability
MMP9 mRNA levels (MMP9 mRNA): decreases MMP9 mRNA levels
tumor growth (MP41 cells [6]; 33 mg/kg per day, FIG. 5): had a trend to decrease tumor growth
reduction of tumor growth (MP41 cells [6]; 100 mg/kg dose, FIG. 5A): 50%
reduction of tumor weight (MP41 cells [6]; 100 mg/kg dose, FIG. 5B): 50%

IC50 (MP41 cells [1]; [7]): 15 µM
IC50 (MM66 cells [2]; [8]): 20 µM
Structure (SMILES): CCOc1ccc2nc(NC(=O)Nc3ccccc3C)sc2c1 [MCK133, 1-(6-ethoxybenzo[d]thiazol-2-yl)-3-(o-tolyl)urea]

IC50 (MP41 cells [1]; [7]): 10 µM
IC50 (MM66 cells [2]; [8]): 5 µM
Structure (SMILES): O=C(Nc1cccc(Cl)c1)Nc1nc2ccc(-c3cccc4ccccc34)cc2s1 [MCK164, 1-(3-chlorophenyl)-3-(6-(naphthalen-1-yl)benzo[d]thiazol-2-yl)urea]

IC50 (MP41 cells [1]; [7]): 8 µM
IC50 (MM66 cells [2]; [8]): 10 µM
Structure (SMILES): O=C(Nc1ccccc1)Nc1nc2ccc([N+](=O)[O-])cc2[nH]1 [MCK157, 1-(6-nitro-1H-benzo[d]imidazol-2-yl)-3-phenylurea]

IC50 (MP41 cells [1]; [7]): 50 µM
IC50 (MM66 cells [2]; [8]): 50 µM
Structure (SMILES): CCOc1ccc2nc(NC(=O)Nc3ccc(OC)cc3)sc2c1 [MCK135, 1-(6-ethoxybenzo[d]thiazol-2-yl)-3-(4-methoxyphenyl)urea]
